What was measured:
[1] = test system: barnyardgrass; assay: Test A pre-/postemergence herbicide test; format: in vivo, Echinochloa crus-galli
Outline: (§1)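 Formulated compound (non-phytotoxic solvent, surfactant) sprayed pre- onto soil of seeded loam/sand pots or post- onto seedlings at 1–2 leaves; ~10 d greenhouse; 0–100 visual control rating versus untreated.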

[2] = test system: velvetleaf; assay: Test A pre-/postemergence herbicide test; format: in vivo, Abutilon theophrasti
Outline: as §1

[3] = test system: rice; assay: Test B flooded paddy test; format: in vivo, Oryza sativa; conditions: Flood, scale of 0 to 100 where 0 is no effect and 100 is complete control
Outline: (§2)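 Plants were grown to the 2-leaf stage, then pots were flooded to 3 cm above the soil and compound was applied directly into the paddy water, with that depth held throughout. After 13 to 15 days in a greenhouse, injury was rated visually against untreated controls on a 0 to 100 scale (100 = complete control).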

[4] = test system: barnyardgrass; assay: Test B flooded paddy test; format: in vivo, Echinochloa crus-galli; conditions: Flood, scale of 0 to 100 where 0 is no effect and 100 is complete control
Outline: as §2

[5] = test system: crabgrass, large; assay: Test A pre-/postemergence herbicide test; format: in vivo, Digitaria sanguinalis
Outline: as §1

[6] = test system: corn; assay: Test A pre-/postemergence herbicide test; format: in vivo, Zea mays
Outline: as §1

[7] = test system: sedge, umbrella; assay: Test B flooded paddy test; format: in vivo, Cyperus difformis; conditions: Flood, scale of 0 to 100 where 0 is no effect and 100 is complete control
Outline: as §2

[8] = test system: wheat; assay: Test A pre-/postemergence herbicide test; format: in vivo, Triticum aestivum
Outline: as §1

[9] = test system: giant foxtail; assay: Test A pre-/postemergence herbicide test; format: in vivo, Setaria faberii
Outline: as §1

[10] = test system: pigweed; assay: Test A pre-/postemergence herbicide test; format: in vivo, Amaranthus retroflexus
Outline: as §1

[11] = test system: morningglory; assay: Test A pre-/postemergence herbicide test; format: in vivo, Ipomoea spp.
Outline: as §1

[12] = test system: ducksalad; assay: Test B flooded paddy test; format: in vivo, Heteranthera limosa; conditions: Flood, scale of 0 to 100 where 0 is no effect and 100 is complete control
Outline: as §2

[13] = 125 g ai/ha, visual rating, 0 to 100 scale, 0 no effect, 100 complete control, approximately 10 days, preemergence
[14] = Postemergence, 125 g ai/ha, 0 to 100 scale, 0 no effect, 100 complete control
[15] = Postemergence, 500 g ai/ha, 0 to 100 scale (0 no effect, 100 complete control)
[16] = preemergence, 500 g ai/ha, 0 to 100 scale
[17] = Postemergence, 1000 g ai/ha, 0 to 100 scale (0 no effect, 100 complete control)
[18] = preemergence, 1000 g ai/ha, 0 to 100 scale
[19] = Postemergence, 125 g ai/ha, 0 to 100 scale, 0 is no effect, 100 is complete control
[20] = preemergence, 500 g ai/ha, 0 to 100 scale, 0 is no effect and 100 is complete control

Compound: O=C1NCC(c2ccc3ccccc3c2)C1C(=O)Nc1ccccc1C(F)(F)F (racemic) [Compound 117]
- Plant response rating, Barnyardgrass [1, 13]: 0
- Plant response rating, Barnyardgrass [1, 14]: 0
- Plant response rating, Barnyardgrass [1, 15]: 30
- Plant response rating, Barnyardgrass ([1]; preemergence, 500 g ai/ha, 0 to 100 scale (0 no effect, 100 complete control)): 20
- Plant response rating, Velvetleaf [2, 13]: 0
- Plant response rating, Velvetleaf [2, 14]: 0
- Velvetleaf plant response rating (0 to 100 scale, 0 is no effect, 100 is complete control) ([2]; Postemergence, 500 g ai/ha): 0
- Plant response rating, Velvetleaf [2, 16]: 0
- Plant response rating, Rice ([3]; 1000 g ai/ha): 0
- Plant response rating, Barnyardgrass ([4]; 1000 g ai/ha): 40
- Plant response rating, Crabgrass, Large [5, 13]: 60
- Plant response rating, Crabgrass, Large [5, 14]: 30
- Crabgrass, Large plant response rating (0 to 100 scale, 0 is no effect, 100 is complete control) ([5]; Postemergence, 500 g ai/ha): 60
- Plant response rating, Crabgrass, Large [5, 16]: 80
- Plant response rating, Corn [6, 13]: 0
- Plant response rating, Corn [6, 14]: 0
- Plant response rating, Corn [6, 15]: 20
- Plant response rating, Corn [6, 16]: 0
- Plant response rating, Sedge, Umbrella ([7]; 1000 g ai/ha): 0
- Plant response rating, Wheat [8, 13]: 0
- Plant response rating, Wheat [8, 14]: 0
- Wheat plant response rating (0 to 100 scale, 0 is no effect, 100 is complete control) ([8]; Postemergence, 500 g ai/ha): 0
- Plant response rating, Wheat [8, 16]: 0
- Plant response rating, Foxtail, Giant [9, 13]: 20
- Plant response rating, Foxtail, Giant [9, 14]: 20
- Foxtail, Giant plant response rating (0 to 100 scale, 0 is no effect, 100 is complete control) ([9]; Postemergence, 500 g ai/ha): 50
- Plant response rating, Foxtail, Giant [9, 16]: 70
- Plant response rating, Pigweed [10, 13]: 0
- Plant response rating, Pigweed [10, 14]: 0
- Pigweed plant response rating (0 to 100 scale, 0 is no effect, 100 is complete control) ([10]; Postemergence, 500 g ai/ha): 0
- Plant response rating, Pigweed [10, 16]: 0
- Plant response rating, Morningglory [11, 13]: 0
- Plant response rating, Morningglory [11, 14]: 0
- Morningglory plant response rating (0 to 100 scale, 0 is no effect, 100 is complete control) ([11]; Postemergence, 500 g ai/ha): 0
- Plant response rating, Morningglory [11, 16]: 0
- Plant response rating, Ducksalad ([12]; 1000 g ai/ha): 90

Compound: O=C1NCC(c2ccc(F)c(F)c2)C1C(=O)Nc1ccc(F)cc1 (racemic) [Compound 193]
- Plant response rating, Barnyardgrass [1, 17]: 90
- Plant response rating, Barnyardgrass ([1]; preemergence, 1000 g ai/ha, 0 to 100 scale (0 no effect, 100 complete control)): 80
- Plant response rating, Velvetleaf [2, 17]: 0
- Plant response rating, Velvetleaf [2, 18]: 0
- Plant response rating, Rice ([3]; 1000 g ai/ha): 20
- Plant response rating, Barnyardgrass ([4]; 1000 g ai/ha): 0
- Plant response rating, Crabgrass, Large [5, 17]: 90
- Plant response rating, Crabgrass, Large [5, 18]: 100
- Plant response rating, Corn [6, 17]: 0
- Plant response rating, Corn [6, 18]: 0
- Plant response rating, Sedge, Umbrella ([7]; 1000 g ai/ha): 20
- Plant response rating, Wheat [8, 17]: 0
- Plant response rating, Wheat [8, 18]: 0
- Plant response rating, Foxtail, Giant [9, 17]: 80
- Plant response rating, Foxtail, Giant [9, 18]: 90
- Plant response rating, Pigweed [10, 17]: 0
- Plant response rating, Pigweed [10, 18]: 0
- Plant response rating, Morningglory [11, 17]: 0
- Plant response rating, Morningglory [11, 18]: 0
- Plant response rating, Ducksalad ([12]; 1000 g ai/ha): 60

Compound: COc1cc(C2CNC(=O)C2C(=O)Nc2ccccc2F)ccc1F (racemic) [Compound 194]
- Plant response rating, Barnyardgrass [1, 13]: 0
- Plant response rating, Barnyardgrass [1, 19]: 50
- Barnyardgrass plant response rating (0 to 100 scale, 0 is no effect, 100 is complete control) ([1]; Postemergence, 500 g ai/ha): 80
- Plant response rating, Barnyardgrass [1, 20]: 80
- Plant response rating, Velvetleaf [2, 13]: 0
- Plant response rating, Velvetleaf [2, 19]: 0
- Velvetleaf plant response rating (0 to 100 scale, 0 is no effect, 100 is complete control) ([2]; Postemergence, 500 g ai/ha): 0
- Plant response rating, Velvetleaf [2, 20]: 0
- Plant response rating, Rice ([3]; 250 g ai/ha): 0
- Plant response rating, Rice ([3]; 1000 g ai/ha): 20
- Plant response rating, Barnyardgrass ([4]; 250 g ai/ha): 0
- Plant response rating, Barnyardgrass ([4]; 1000 g ai/ha): 65
- Plant response rating, Crabgrass, Large [5, 13]: 90
- Plant response rating, Crabgrass, Large [5, 19]: 60
- Crabgrass, Large plant response rating (0 to 100 scale, 0 is no effect, 100 is complete control) ([5]; Postemergence, 500 g ai/ha): 80
- Plant response rating, Crabgrass, Large [5, 20]: 100
- Plant response rating, Corn [6, 13]: 0
- Plant response rating, Corn [6, 19]: 0
- Corn plant response rating (0 to 100 scale, 0 is no effect, 100 is complete control) ([6]; Postemergence, 500 g ai/ha): 0
- Plant response rating, Corn [6, 20]: 0
- Plant response rating, Sedge, Umbrella ([7]; 250 g ai/ha): 0
- Plant response rating, Sedge, Umbrella ([7]; 1000 g ai/ha): 0
- Plant response rating, Wheat [8, 13]: 0
- Plant response rating, Wheat [8, 19]: 0
- Wheat plant response rating (0 to 100 scale, 0 is no effect, 100 is complete control) ([8]; Postemergence, 500 g ai/ha): 0
- Plant response rating, Wheat [8, 20]: 0
- Plant response rating, Foxtail, Giant [9, 13]: 50
- Plant response rating, Foxtail, Giant [9, 19]: 10
- Foxtail, Giant plant response rating (0 to 100 scale, 0 is no effect, 100 is complete control) ([9]; Postemergence, 500 g ai/ha): 50
- Plant response rating, Foxtail, Giant [9, 20]: 90
- Plant response rating, Pigweed [10, 13]: 0
- Plant response rating, Pigweed [10, 19]: 0
- Pigweed plant response rating (0 to 100 scale, 0 is no effect, 100 is complete control) ([10]; Postemergence, 500 g ai/ha): 0
- Plant response rating, Pigweed [10, 20]: 0
- Plant response rating, Morningglory [11, 13]: 0
- Plant response rating, Morningglory [11, 19]: 0
- Morningglory plant response rating (0 to 100 scale, 0 is no effect, 100 is complete control) ([11]; Postemergence, 500 g ai/ha): 0
- Plant response rating, Morningglory [11, 20]: 0
- Plant response rating, Ducksalad ([12]; 250 g ai/ha): 45
- Plant response rating, Ducksalad ([12]; 1000 g ai/ha): 80

From patent publication US10294202B2, “Pyrrolidinones as herbicides” (FMC Corporation, priority 2013, dated 2019)
